In PubChem BioAssay (NCI):
“And” between values parts separate entries of the source, which are not always exact repeats. Identical values can stand only once.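 How tested: cells in 96-well plates exposed to compound for 48 hours at five concentrations. At the GI50, growth is halved. The concentration for full growth arrest is given as TGI.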

Legend:
Experiment in all cases: NCI anticancer screen, dose series, 48 h
[1] = system: RPMI-8226 leukemia
[2] = system: MCF7 breast
[3] = system: TK-10 renal
[4] = system: ACHN renal
[5] = system: A498 renal
[6] = system: SF-268 CNS
[7] = system: SNB-19 CNS
[8] = system: UACC-257 melanoma
[9] = system: NCI-H460 lung
[10] = system: K-562 leukemia

## CCC(C)[C@H]1O[C@]2(C=C[C@@H]1C)C[C@@H]1C[C@@H](C/C=C(\C)[C@@H](OC3C[C@H](OC)C(O[C@H]4C[C@H](OC)[C@@H](O)[C@H](C)O4)[C@H](C)O3)[C@@H](C)/C=C/C=C3\CO[C@@H]4[C@H](O)C(C)=C[C@@H](C(=O)O1)[C@]34O)O2 (stereo partly specified)
[1]
  GI50: 1.58 µM
  TGI: 50 µM
[2]
  GI50: 1.85 µM
  TGI: 5.72 µM
[3]
  GI50: 1.07 µM
  TGI: 2.74 µM
[4]
  GI50: 1.72 µM
  TGI: 5.63 µM
[5]
  GI50: 0.5 µM
  TGI: 1.14 µM
[6]
  GI50: 1.01 µM
  TGI: 2.14 µM
[7]
  GI50: 3.38 µM
  TGI: 41.1 µM
[8]
  GI50: 1.56 µM
  TGI: 5.74 µM

## CCOC1=C2C(=O)OC(=O)C2C2CCCCC2=C1 (stereo unspecified)
[1]
  TGI: > 100 µM
[3]
  TGI: > 100 µM
[9]
  TGI: > 100 µM
[10]
  TGI: > 100 µM
[6]
  TGI: > 100 µM
[7]
  TGI: > 100 µM
[8]
  TGI: > 100 µM

## Clc1ccc(N=Nc2nc3ccccc3nc2N=Nc2ccc(Cl)cc2Cl)c(Cl)c1
[1]
  TGI: > 100 µM
[3]
  TGI: > 100 µM
[4]
  TGI: > 100 µM
[9]
  TGI: > 100 µM
[10]
  TGI: > 100 µM
[5]
  TGI: > 100 µM
[6]
  TGI: > 100 µM
[7]
  TGI: > 100 µM
[8]
  TGI: > 100 µM

## Cc1cc2c(C)nn(Cc3ccccc3)c2c(C(N)=O)c1C
[1]
  TGI: > 100 µM
[3]
  TGI: > 100 µM
[4]
  TGI: > 100 µM
[9]
  TGI: > 100 µM
[10]
  TGI: > 100 µM
[5]
  TGI: > 100 µM
[6]
  TGI: > 100 µM
[7]
  TGI: > 100 µM
[8]
  TGI: > 100 µM

## c1ccc(C(c2ccccc2)c2cccnc2)cc1
[1]
  TGI: > 100 µM
[3]
  TGI: > 100 µM
[4]
  TGI: > 100 µM
[9]
  TGI: > 100 µM
[10]
  TGI: > 100 µM
[5]
  TGI: > 100 µM
[6]
  TGI: > 100 µM
[7]
  TGI: > 100 µM
[8]
  TGI: > 100 µM

## Cc1ccc(SSc2ccc(C)cc2C(=O)O)c(C(=O)O)c1
[3]
  TGI: > 100 µM
[4]
  TGI: > 100 µM
[9]
  TGI: > 100 µM
[10]
  TGI: > 100 µM
[5]
  TGI: > 100 µM
[6]
  TGI: > 100 µM
[7]
  TGI: > 100 µM
[8]
  TGI: > 100 µM

## CCn1cc(C(=O)N/N=C/c2ccccc2)c(=O)c2cc(F)c(N3CCNC(C)C3)c(F)c21 (stereo unspecified)
[3]
  GI50: 1.71 µM
  TGI: 3.24 µM
[4]
  GI50: 1.73 µM
  TGI: 3.12 µM
[5]
  GI50: 1.9 µM
  TGI: 3.38 µM
[6]
  GI50: 1.96 µM
  TGI: 3.62 µM

## O=C(N/C(=C/c1ccc(Cl)cc1Cl)c1nc2ccccc2s1)c1ccccc1
[1]
  TGI: > 100 µM
[2]
  TGI: 52.1 µM
[3]
  TGI: 42.8 µM
[4]
  TGI: 19.5 µM
[9]
  TGI: 52.2 µM
[10]
  TGI: > 100 µM
[6]
  TGI: 34 µM
[7]
  TGI: 41.1 µM
[8]
  TGI: 31.6 µM

## COc1ccc(-c2nc(-c3ccccc3)c(-c3ccccc3)[nH]2)cc1OC1CCCC1
[1]
  GI50: 38.1 µM
  TGI: > 100 µM
[2]
  GI50: > 100 µM
  TGI: > 100 µM
[4]
  GI50: > 100 µM
  TGI: > 100 µM
[9]
  GI50: > 100 µM
  TGI: > 100 µM
[10]
  GI50: 79.5 µM
  TGI: > 100 µM
[5]
  GI50: > 100 µM
  TGI: > 100 µM
[6]
  GI50: > 100 µM
  TGI: > 100 µM
[7]
  GI50: > 100 µM
  TGI: > 100 µM
[8]
  GI50: > 100 µM
  TGI: > 100 µM

## COc1ccc2c(c1)nnn1c3ncccc3c(N=O)c21
[1]
  GI50: 0.261 µM and 1.08 µM
  TGI: 1.44 µM and 7.64 µM
[2]
  GI50: 0.132 µM and 0.336 µM
  TGI: 0.814 µM and 2.21 µM
[3]
  GI50: 5.08 µM
  TGI: 19.2 µM
[4]
  GI50: 0.374 µM
  TGI: > 100 µM
[9]
  GI50: 1.67 µM and 2.19 µM
  TGI: 8.12 µM and 7.8 µM
[5]
  GI50: 1.27 µM and 6.23 µM
  TGI: 6.26 µM and 22.5 µM
[6]
  GI50: 0.465 µM and 1.73 µM
  TGI: 3.56 µM and 8.25 µM
[7]
  GI50: 6.28 µM and 11.8 µM
  TGI: 16.2 µM and 34.2 µM
[8]
  GI50: 8.21 µM and 2.62 µM
  TGI: 30.8 µM and 13.6 µM

## COC(=O)/C(=N\NC(=O)C[N+](C)(C)C)C(C(=O)OC)C(=O)C(=O)Nc1ccccc1C(N)=O (stereo unspecified)
[1]
  TGI: > 100 µM
[3]
  TGI: > 100 µM
[4]
  TGI: > 100 µM
[9]
  TGI: > 100 µM
[10]
  TGI: > 100 µM
[5]
  TGI: > 100 µM
[6]
  TGI: > 100 µM
[7]
  TGI: > 100 µM
[8]
  TGI: > 100 µM

## COc1ccc(-c2nc(/C=N/Nc3cc(C)nc4ccc(Cl)cc34)c(C)o2)cc1
[3]
  GI50: 1.83 µM
  TGI: 3.3 µM
[4]
  GI50: 1.81 µM
  TGI: 3.2 µM
[9]
  GI50: 1.85 µM
  TGI: 3.49 µM
[5]
  GI50: 3.13 µM
  TGI: 15.2 µM
[7]
  GI50: 1.81 µM
  TGI: 3.46 µM
[8]
  GI50: 1.7 µM
  TGI: 3.35 µM

## C1COCCN1.C1COCCN1.NC1CCCCC1N.[Cl-].[Pt+2] (stereo unspecified)
[1]
  GI50: > 100 µM
  TGI: > 100 µM
[3]
  GI50: > 100 µM
  TGI: > 100 µM
[4]
  GI50: > 100 µM
  TGI: > 100 µM
[9]
  GI50: > 100 µM
  TGI: > 100 µM
[10]
  GI50: > 100 µM
  TGI: > 100 µM
[5]
  GI50: > 100 µM
  TGI: > 100 µM
[6]
  GI50: > 100 µM
  TGI: > 100 µM
[7]
  GI50: > 100 µM
  TGI: > 100 µM
[8]
  GI50: > 100 µM
  TGI: > 100 µM

## CN1c2ccccc2N(C(=O)c2ccc(Cl)cc2)C(CC(=O)O)c2cccn21 (stereo unspecified)
[1]
  TGI: > 100 µM
[3]
  TGI: > 100 µM
[4]
  TGI: > 100 µM
[9]
  TGI: > 100 µM
[10]
  TGI: > 100 µM
[5]
  TGI: > 100 µM
[6]
  TGI: > 100 µM
[7]
  TGI: > 100 µM
[8]
  TGI: > 100 µM

## Cc1oc2c(C)c3oc(=O)cc(C)c3cc2c1CN1C(=O)C2OCCOCCOCCOCCOCCO[C@H]2C1=O (stereo partly specified)
[1]
  TGI: > 100 µM
[3]
  TGI: > 100 µM
[4]
  TGI: > 100 µM
[9]
  TGI: > 100 µM
[10]
  TGI: > 100 µM
[5]
  TGI: > 100 µM
[6]
  TGI: > 100 µM
[7]
  TGI: > 100 µM
[8]
  TGI: > 100 µM

## CCN(CC)CCOc1ccc(CCc2cc(OC)c(OC)c(OC)c2)cc1
[1]
  TGI: 51.5 µM
[3]
  TGI: 88.9 µM
[4]
  TGI: > 100 µM
[9]
  TGI: > 100 µM
[10]
  TGI: > 100 µM
[5]
  TGI: 98.7 µM
[6]
  TGI: > 100 µM
[7]
  TGI: > 100 µM
[8]
  TGI: 69.9 µM

## N.N.N.N.N.[Cl-].[Co+3].c1ccc(-c2nn[n-]n2)cc1
[1]
  GI50: > 100 µM
  TGI: > 100 µM
[3]
  GI50: > 100 µM
  TGI: > 100 µM
[4]
  GI50: > 100 µM
  TGI: > 100 µM
[9]
  GI50: > 100 µM
  TGI: > 100 µM
[10]
  GI50: > 100 µM
  TGI: > 100 µM
[6]
  GI50: > 100 µM
  TGI: > 100 µM
[7]
  GI50: > 100 µM
  TGI: > 100 µM
[8]
  GI50: > 100 µM
  TGI: > 100 µM

## OCC(O)C(Cl)CCl (stereo unspecified)
[2]
  TGI: > 100 µM
[3]
  TGI: > 100 µM
[4]
  TGI: > 100 µM
[9]
  TGI: > 100 µM
[10]
  TGI: > 100 µM
[6]
  TGI: > 100 µM
[7]
  TGI: > 100 µM
[8]
  TGI: > 100 µM
